According to patent US20250236616A1, “IMMUNOMODULATING AZALIDES” (Zoetis Services LLC, priority 2021, published 2025):
“Also recorded” adds a separate entry of the source.

How the values were obtained:
[1] = system: P. multocida; experiment: Murine P. multocida intranasal challenge study, treatment 18 hours after challenge, survival; assay type: in vivo, mice; conditions: subcutaneous 18 hours after challenge (5×10^3 CFU/mouse); tulathromycin 16 mg/kg, M9 32 mg/kg, ceftiofur 9 mg/kg
Description: (§1) In one murine P. multocida intranasal challenge study, mice were administered tulathromycin (16 mg/kg; T02), M9 (32 mg/kg; T03), or ceftiofur (9 mg/kg; T04) by subcutaneous injection 18 hours after bacterial challenge (5×10^3 CFU/mouse) for lung tissue RNA sequence analysis. Survival at Day 7 was about 80%, 50%, and 90% for T02, T03, and T04, respectively, compared to placebo at 0%. Differential gene expression from total lung tissue RNA sequence analysis indicated at least 226 unique genes were up or down regulated (with significance) for T03. Output from ingenuity pathway analysis of these unique genes predicted major upstream regulators of the involved pathways. Data was analyzed based on the number of genes being modulated in the same direction that were associated with a given upstream regulator. An activation z-score of 2 or greater is considered significant and the direction change is indicated by + (activated) or -(inhibited). The top 5 pathways included: IL-9 signaling, glucocorticoid receptor signaling, prolactin signaling, JAK STAT signaling, and IL-17 signaling. The top 6 upstream regulators (activation z-score) included: lipopolysaccharide (−6.725), TNF (−4.669), IFNγ (−5.759), IL-1β (−5.947), STAT1 (−2.787), and poly rl: rC-RNA (−5.289). Even though this study was run in the murine model, the top upstream regulators identified as being modulated by M9 include an almost ubiquitous overlap with the pathways identified in the natural disease study as being key mediators in BRD, and therefore is modulating highly relevant pathways in BRD pathobiology.

[2] = system: lung tissue gene expression, upstream regulators; experiment: Lung tissue RNA sequence analysis with ingenuity pathway analysis, murine P. multocida challenge; assay type: in vivo, mice; conditions: M9 32 mg/kg
Description: as §1

[3] = system: natural bovine respiratory disease (BRD); experiment: Natural bovine respiratory disease study, treatment failure; assay type: in vivo, beef calves; conditions: dosed on arrival to the feedlot, 14-day observation
Description: (§2) The primary clinical endpoint for efficacy was treatment failure/success over a 14-day observation period. Clinically normal beef calves (150-200 kg) at moderate risk for BRD were dosed on arrival to the feedlot. Animals (N=114/group) received saline (T01), 5 mg/kg M9 (T02) or 10 mg/kg M9 (T03); or Zactran (T04).

[4] = PK study, plasma concentration; assay type: in vivo; conditions: 10 mg/kg dose
Description: as §2

[5] = system: M. haemolytica (strain: OSU-012103-BHI); experiment: Bovine M. haemolytica intratracheal lung challenge model, mortality; assay type: in vivo; conditions: 6 animals
Description: To evaluate immunomodulation effects and potential biomarkers, a bovine M. haemolytica (strain: OSU-012103-BHI) intratracheal lung challenge model study was completed utilizing M9 treatment in the presence and absence of bacterial challenge and a Draxxin® comparator. […] Animals were administered 0.05 mL/kg saline (T01), 10 mg/kg M9 (T02); Draxxin 2.5 mg/kg (T03) and 10 mg/kg M9 (T04) by subcutaneous injection on Day-1. Dose was based on body weight. Animals were challenge on Day 0 with the exception of T04. Blood was collected longitudinally throughout the study for biomarker evaluation panel (e.g., IL-6 and CD163) including two baseline samples prior to treatment. FIG. 4A depicts the area under the curve concentrations for IL-6 protein for individual animals against percent lung lesion scores and FIG. 4B depicts the CD163 fold change area under the curve for individual animals against percent lung lesion scores. Data is represented as percent lung lesion scores against the area under the curve (AUC) for IL-6 protein (immunoassay expressed in pg/mL) and CD163 (flow cytometric mean fluorescent intensity (MFI) in fold change from baseline). In both assays, a 2-fold change is typically considered to be relevant.

[6] = system: CD163; experiment: CD163 expression by flow cytometry, cattle; assay type: in vivo, bovine; conditions: monocytes/macrophages of whole blood
Description: CD163 Expression by Flow Cytometry-Fresh whole bovine blood samples were collected into EDTA vacutainer tubes, placed on ice and processed within two hours of collection. Blood was placed in 96 well round bottom plates at 30 μL per well, 5 μL of goat serum was added as a blocking reagent and the plate was rocked at 4° C. for approximately 15 minutes. To label cells, 10 μL of a master mix panel of antibodies including anti-CD14 (BioLegend #301854), anti-CD172a (BioRad #MCA2041C), anti-CD163 (Kingfisher #WSC0832B-100) and anti-CD16 (BioRad #MCA5665F), was added to the samples and returned to 4° C. (protected from light) for 30 minutes. Single stain controls were included for use in fluorescence compensation matrices. Red blood cells were removed by adding 200 μL of lysis buffer and incubating for 10 minutes at room temperature while rocking. The plate was then centrifuged at 270×g for three minutes and supernatant removed. This step was repeated until supernatant was clear. 200 μL of FACS buffer was added to each well to wash cells, centrifuged as above, resuspended in 80 μL of FACS buffer and read immediately on a digital FACS Canto II HTS (BD Bioscience) flow cytometer. Data was analyzed using FlowJo software (BD Bioscience). Macrophage subpopulations were determined using CD172, CD14, CD16 markers and assessed for expression of CD163. […]

Question: With CCCNC[C@]1(O)[C@H](C)O[C@@H](O[C@H]2[C@H](C)[C@@H](O[C@@H]3O[C@H](C)C[C@H](NC)[C@H]3O)[C@](C)(O)C[C@@H](C)CN[C@H](C)[C@@H](O)[C@](C)(O)[C@@H](CC)OC(=O)[C@@H]2C)C[C@@]1(C)OC [Example M9, (2R,3S,4R,5R,8R,10R,11R,12S,13S,14R)-2-ethyl-3,4, 10-trihydroxy-13-(((2R,4R,5S,6S)-5-hydroxy-4-methoxy-4,6-dimethyl-5-((propylamino)methyl)-tetrahydro-2H-pyran-2-yl)oxy)-11-(((2S,3R,4S,6R)-3-hydroxy-6-methyl-4-(methylamino)tetrahydro-2H-pyran-2-yl)oxy)-3,5,8,10,12,14-hexamethyl-1-oxa-6-azacyclopentadecan-15-one] as the compound, how does the “Survival at Day 7” value [1] read?
Answer: ~50%

Question: And the “unique genes up or down regulated (with significance)” value ([2]; total lung tissue RNA sequence analysis)?
Answer: at least 226

Question: And the “activation z-score, upstream regulator IFNγ” value ([2]; − = inhibited)?
Answer: −5.759

Question: And the “activation z-score, upstream regulator IL-1β” value ([2]; − = inhibited)?
Answer: −5.947

Question: What about the “activation z-score, upstream regulator STAT1” value ([2]; − = inhibited) of the same compound?
Answer: −2.787

Question: What about the “activation z-score, upstream regulator TNF” value ([2]; − = inhibited) of the same compound?
Answer: −4.669

Question: What about the “activation z-score, upstream regulator lipopolysaccharide” value ([2]; − = inhibited) of the same compound?
Answer: −6.725

Question: What about the “activation z-score, upstream regulator poly rl: rC-RNA” value ([2]; − = inhibited) of the same compound?
Answer: −5.289

Question: What about the Percent failure ([3]; 5 mg/kg) of the same compound?
Answer: 19.3%

Question: What about the Percent failure ([3]; 10 mg/kg) of the same compound?
Answer: 8.8%

Question: And the maximum plasma concentration [4]?
Answer: 5 µg/mL

Question: And the Mortality ([5]; M. haemolytica challenge Day 0, subcutaneous Day -1, M9 10 mg/kg, Draxxin 2.5 mg/kg)?
Answer: 1/6

Question: What about the Mortality ([5]; No challenge, M9 10 mg/kg subcutaneous Day -1) of the same compound?
Answer: 0/6

Question: And the CD163 expression [6]?
Answer: suppressed; also recorded: mitigates the pathologic increase in CD163 expression
